In the supplement of paper PMC10307832:

Columns and labels:
Assay in all cases: relative viability (nuclei count vs DMSO), 5 days (fraction); higher = more cells survive
Linifanib = compound: Cc1ccc(F)c(NC(=O)Nc2ccc(-c3cccc4[nH]nc(N)c34)cc2)c1 [Linifanib]
Outline: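 After an overnight hold at 37 °C, lung cancer cell lines in 1536-well plates were pinned with five library-drug doses (not always all listed), each √10 from the next, on vehicle-anchored plates. The cells stayed 5 days without fresh medium, then a one-step fix, permeabilisation and Hoechst stain preceded 4× imaging and MetaXpress nuclear counts. A plate passed only with control CV under 25% and at least one doubling. Viability is the median, over plates, of treated-well nuclei relative to vehicle-well nuclei.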

Linifanib + Olaparib = compound: Cc1ccc(F)c(NC(=O)Nc2ccc(-c3cccc4[nH]nc(N)c34)cc2)c1 [Linifanib] + O=C(c1cc(Cc2n[nH]c(=O)c3ccccc23)ccc1F)N1CCN(C(=O)C2CC2)CC1 [Olaparib] (partner 8 µM)
Outline: (§1)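 Cells from lung cancer lines were seeded into 1536-well plates and, one day later, dosed by pin tool. Treatments were either a single drug or a fixed dose of an anchor drug with five library-drug doses (not always all listed) in √10 steps. After 5 days, nuclei were stained in a one-step fixation (final 0.05% Triton X-100, 1% formaldehyde, 1 ug/ml Hoechst) and counted on 4× images, and relative viability is the treated-to-vehicle nuclei ratio, as the median of duplicate plates.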

Linifanib + Crizotinib = compound: Cc1ccc(F)c(NC(=O)Nc2ccc(-c3cccc4[nH]nc(N)c34)cc2)c1 [Linifanib] + C[C@@H](Oc1cc(-c2cnn(C3CCNCC3)c2)cnc1N)c1c(Cl)ccc(F)c1Cl [Crizotinib] (partner 1 µM)
Outline: as §1

Linifanib + Vorinostat = compound: Cc1ccc(F)c(NC(=O)Nc2ccc(-c3cccc4[nH]nc(N)c34)cc2)c1 [Linifanib] + O=C(CCCCCCC(=O)Nc1ccccc1)NO [Vorinostat] (partner 1 µM)
Outline: as §1

Linifanib + Lapatinib = compound: Cc1ccc(F)c(NC(=O)Nc2ccc(-c3cccc4[nH]nc(N)c34)cc2)c1 [Linifanib] + CS(=O)(=O)CCNCc1ccc(-c2ccc3ncnc(Nc4ccc(OCc5cccc(F)c5)c(Cl)c4)c3c2)o1 [Lapatinib] (partner 2 µM)
Outline: as §1

Linifanib + Bortezomib = compound: Cc1ccc(F)c(NC(=O)Nc2ccc(-c3cccc4[nH]nc(N)c34)cc2)c1 [Linifanib] + CC(C)C[C@H](NC(=O)[C@H](Cc1ccccc1)NC(=O)c1cnccn1)B(O)O [Bortezomib] (partner 0.002 µM)
Outline: as §1

Linifanib + Linsitinib = compound: Cc1ccc(F)c(NC(=O)Nc2ccc(-c3cccc4[nH]nc(N)c34)cc2)c1 [Linifanib] + C[C@]1(O)C[C@@H](c2nc(-c3ccc4ccc(-c5ccccc5)nc4c3)c3c(N)nccn32)C1 [Linsitinib] (partner 1 µM)
Outline: as §1

Linifanib + Pictilisib = compound: Cc1ccc(F)c(NC(=O)Nc2ccc(-c3cccc4[nH]nc(N)c34)cc2)c1 [Linifanib] + CS(=O)(=O)N1CCN(Cc2cc3nc(-c4cccc5[nH]ncc45)nc(N4CCOCC4)c3s2)CC1 [Pictilisib] (partner 1 µM)
Outline: as §1

Linifanib + Alpelisib = compound: Cc1ccc(F)c(NC(=O)Nc2ccc(-c3cccc4[nH]nc(N)c34)cc2)c1 [Linifanib] + Cc1nc(NC(=O)N2CCC[C@H]2C(N)=O)sc1-c1ccnc(C(C)(C)C(F)(F)F)c1 [Alpelisib] (partner 2 µM)
Outline: as §1

Linifanib + Foretinib = compound: Cc1ccc(F)c(NC(=O)Nc2ccc(-c3cccc4[nH]nc(N)c34)cc2)c1 [Linifanib] + COc1cc2c(Oc3ccc(NC(=O)C4(C(=O)Nc5ccc(F)cc5)CC4)cc3F)ccnc2cc1OCCCN1CCOCC1 [Foretinib] (partner 0.25 µM)
Outline: as §1

Linifanib + Navitoclax = compound: Cc1ccc(F)c(NC(=O)Nc2ccc(-c3cccc4[nH]nc(N)c34)cc2)c1 [Linifanib] + CC1(C)CCC(c2ccc(Cl)cc2)=C(CN2CCN(c3ccc(C(=O)NS(=O)(=O)c4ccc(N[C@H](CCN5CCOCC5)CSc5ccccc5)c(S(=O)(=O)C(F)(F)F)c4)cc3)CC2)C1 [Navitoclax] (partner 0.5 µM)
Outline: as §1

Linifanib + Phenformin = compound: Cc1ccc(F)c(NC(=O)Nc2ccc(-c3cccc4[nH]nc(N)c34)cc2)c1 [Linifanib] + N=C(N)NC(=N)NCCc1ccccc1 [Phenformin] (partner 250 µM)
Outline: as §1

Linifanib + Dasatinib = compound: Cc1ccc(F)c(NC(=O)Nc2ccc(-c3cccc4[nH]nc(N)c34)cc2)c1 [Linifanib] + Cc1nc(Nc2ncc(C(=O)Nc3c(C)cccc3Cl)s2)cc(N2CCN(CCO)CC2)n1 [Dasatinib] (partner 0.075 µM)
Outline: as §1

Linifanib + Luminespib = compound: Cc1ccc(F)c(NC(=O)Nc2ccc(-c3cccc4[nH]nc(N)c34)cc2)c1 [Linifanib] + CCNC(=O)c1noc(-c2cc(C(C)C)c(O)cc2O)c1-c1ccc(CN2CCOCC2)cc1 [Luminespib] (partner 0.01 µM)
Outline: as §1

Linifanib + Tozasertib = compound: Cc1ccc(F)c(NC(=O)Nc2ccc(-c3cccc4[nH]nc(N)c34)cc2)c1 [Linifanib] + Cc1cc(Nc2cc(N3CCN(C)CC3)nc(Sc3ccc(NC(=O)C4CC4)cc3)n2)n[nH]1 [Tozasertib] (partner 0.1 µM)
Outline: as §1

Linifanib + OSI-027 = compound: Cc1ccc(F)c(NC(=O)Nc2ccc(-c3cccc4[nH]nc(N)c34)cc2)c1 [Linifanib] + COc1cccc2cc(-c3nc([C@H]4CC[C@H](C(=O)O)CC4)n4ncnc(N)c34)[nH]c12 [OSI-027] (partner 0.5 µM)
Outline: as §1

Linifanib + AZD7762 = compound: Cc1ccc(F)c(NC(=O)Nc2ccc(-c3cccc4[nH]nc(N)c34)cc2)c1 [Linifanib] + NC(=O)Nc1cc(-c2cccc(F)c2)sc1C(=O)N[C@H]1CCCNC1 [AZD7762] (partner 0.2 µM)
Outline: as §1

Linifanib + Palbociclib = compound: Cc1ccc(F)c(NC(=O)Nc2ccc(-c3cccc4[nH]nc(N)c34)cc2)c1 [Linifanib] + CC(=O)c1c(C)c2cnc(Nc3ccc(N4CCNCC4)cn3)nc2n(C2CCCC2)c1=O [Palbociclib] (partner 0.5 µM)
Outline: as §1

Linifanib + Pemetrexed = compound: Cc1ccc(F)c(NC(=O)Nc2ccc(-c3cccc4[nH]nc(N)c34)cc2)c1 [Linifanib] + Nc1nc2[nH]cc(CCc3ccc(C(=O)N[C@@H](CCC(=O)O)C(=O)O)cc3)c2c(=O)[nH]1 [Pemetrexed] (partner 0.2 µM)
Outline: as §1

Linifanib + Decitabine = compound: Cc1ccc(F)c(NC(=O)Nc2ccc(-c3cccc4[nH]nc(N)c34)cc2)c1 [Linifanib] + Nc1ncn([C@H]2C[C@H](O)[C@@H](CO)O2)c(=O)n1 [Decitabine] (partner 2 µM)
Outline: as §1

Linifanib + Trametinib = compound: Cc1ccc(F)c(NC(=O)Nc2ccc(-c3cccc4[nH]nc(N)c34)cc2)c1 [Linifanib] + CC(=O)Nc1cccc(-n2c(=O)n(C3CC3)c(=O)c3c(Nc4ccc(I)cc4F)n(C)c(=O)c(C)c32)c1 [Trametinib] (partner 0.02 µM)
Outline: as §1

**Q.** Which results are given for IA-LM?
**A.** relative viability (Linifanib; 0.03162 µM): 0.983; relative viability (Linifanib; 0.1 µM): 0.84; relative viability (Linifanib; 0.3162 µM): 0.914; relative viability (Linifanib + Olaparib; first compound 0.03162 µM): 0.901; relative viability (Linifanib + Olaparib; first compound 0.1 µM): 0.81; relative viability (Linifanib + Olaparib; first compound 0.3162 µM): 0.8; relative viability (Linifanib + Crizotinib; first compound 0.03162 µM): 0.806; relative viability (Linifanib + Crizotinib; first compound 0.3162 µM): 0.768; relative viability (Linifanib + Vorinostat; first compound 0.03162 µM): 0.841; relative viability (Linifanib + Vorinostat; first compound 0.1 µM): 0.906; relative viability (Linifanib + Vorinostat; first compound 0.3162 µM): 1.33; relative viability (Linifanib + Lapatinib; first compound 0.03162 µM): 0.718; relative viability (Linifanib + Lapatinib; first compound 0.3162 µM): 0.713; relative viability (Linifanib + Bortezomib; first compound 0.03162 µM): 0.752; relative viability (Linifanib + Bortezomib; first compound 0.1 µM): 0.974; relative viability (Linifanib + Bortezomib; first compound 0.3162 µM): 0.846; relative viability (Linifanib + Linsitinib; first compound 0.03162 µM): 0.611; relative viability (Linifanib + Linsitinib; first compound 0.1 µM): 0.46; relative viability (Linifanib + Linsitinib; first compound 0.3162 µM): 0.55; relative viability (Linifanib + Pictilisib; first compound 0.03162 µM): 0.313; relative viability (Linifanib + Pictilisib; first compound 0.1 µM): 0.319; relative viability (Linifanib + Pictilisib; first compound 0.3162 µM): 0.338; relative viability (Linifanib + Alpelisib; first compound 0.03162 µM): 0.588; relative viability (Linifanib + Alpelisib; first compound 0.1 µM): 0.872; relative viability (Linifanib + Alpelisib; first compound 0.3162 µM): 0.643; relative viability (Linifanib + Foretinib; first compound 0.03162 µM): 1.2; relative viability (Linifanib + Foretinib; first compound 0.1 µM): 1.18; relative viability (Linifanib + Foretinib; first compound 0.3162 µM): 1.15; relative viability (Linifanib + Navitoclax; first compound 0.03162 µM): 0.855; relative viability (Linifanib + Navitoclax; first compound 0.1 µM): 0.947; relative viability (Linifanib + Navitoclax; first compound 0.3162 µM): 0.656

**Q.** NCI-H1623 was tested. Which relative viability (Linifanib; 0.03162 µM) did it give?
**A.** Its relative viability is 0.918.

**Q.** And the relative viability (Linifanib; 0.1 µM)?
**A.** Its relative viability is 0.891.

**Q.** What about the relative viability (Linifanib; 0.3162 µM) of the same cell line?
**A.** The relative viability was 1.04.

**Q.** What about the relative viability (Linifanib + Phenformin; first compound 0.03162 µM) of the same cell line?
**A.** Its relative viability is 0.524.

**Q.** What about the relative viability (Linifanib + Phenformin; first compound 0.1 µM) of the same cell line?
**A.** The relative viability was 0.601.

**Q.** What about the relative viability (Linifanib + Phenformin; first compound 0.3162 µM) of the same cell line?
**A.** The relative viability was 0.601.

**Q.** What about the relative viability (Linifanib + Dasatinib; first compound 0.03162 µM) of the same cell line?
**A.** The relative viability was 0.463.

**Q.** And the relative viability (Linifanib + Dasatinib; first compound 0.1 µM)?
**A.** Its relative viability is 0.608.

**Q.** What about the relative viability (Linifanib + Dasatinib; first compound 0.3162 µM) of the same cell line?
**A.** Its relative viability is 0.46.

**Q.** And the relative viability (Linifanib + Luminespib; first compound 0.03162 µM)?
**A.** Its relative viability is 0.49.

**Q.** And the relative viability (Linifanib + Luminespib; first compound 0.1 µM)?
**A.** Its relative viability is 0.493.

**Q.** And the relative viability (Linifanib + Luminespib; first compound 0.3162 µM)?
**A.** The relative viability was 0.471.

**Q.** What about the relative viability (Linifanib + Foretinib; first compound 0.03162 µM) of the same cell line?
**A.** The relative viability was 0.848.

**Q.** And the relative viability (Linifanib + Foretinib; first compound 0.1 µM)?
**A.** Its relative viability is 0.929.

**Q.** What about the relative viability (Linifanib + Foretinib; first compound 0.3162 µM) of the same cell line?
**A.** The relative viability was 0.877.

**Q.** What about the relative viability (Linifanib + Tozasertib; first compound 0.03162 µM) of the same cell line?
**A.** Its relative viability is 0.427.

**Q.** And the relative viability (Linifanib + Tozasertib; first compound 0.1 µM)?
**A.** The relative viability was 0.434.

**Q.** What about the relative viability (Linifanib + Tozasertib; first compound 0.3162 µM) of the same cell line?
**A.** Its relative viability is 0.417.

**Q.** And the relative viability (Linifanib + OSI-027; first compound 0.03162 µM)?
**A.** The relative viability was 0.437.

**Q.** And the relative viability (Linifanib + OSI-027; first compound 0.1 µM)?
**A.** Its relative viability is 0.43.

**Q.** What about the relative viability (Linifanib + OSI-027; first compound 0.3162 µM) of the same cell line?
**A.** Its relative viability is 0.421.

**Q.** Which results are given for NCI-H1648?
**A.** relative viability (Linifanib; 0.03162 µM): 0.847; relative viability (Linifanib; 0.1 µM): 0.688; relative viability (Linifanib; 0.3162 µM): 1.08; relative viability (Linifanib + Olaparib; first compound 0.03162 µM): 0.847; relative viability (Linifanib + Olaparib; first compound 0.3162 µM): 1.11; relative viability (Linifanib + AZD7762; first compound 0.03162 µM): 0.755; relative viability (Linifanib + AZD7762; first compound 0.3162 µM): 0.509; relative viability (Linifanib + Palbociclib; first compound 0.03162 µM): 0.234; relative viability (Linifanib + Palbociclib; first compound 0.3162 µM): 0.269; relative viability (Linifanib + Vorinostat; first compound 0.03162 µM): 0.491; relative viability (Linifanib + Vorinostat; first compound 0.3162 µM): 0.412; relative viability (Linifanib + Pemetrexed; first compound 0.03162 µM): 0.716; relative viability (Linifanib + Pemetrexed; first compound 0.3162 µM): 0.654; relative viability (Linifanib + Decitabine; first compound 0.03162 µM): 0.5; relative viability (Linifanib + Decitabine; first compound 0.3162 µM): 0.45; relative viability (Linifanib + Trametinib; first compound 0.03162 µM): 0.469; relative viability (Linifanib + Trametinib; first compound 0.3162 µM): 0.461; relative viability (Linifanib + Tozasertib; first compound 0.03162 µM): 0.433; relative viability (Linifanib + Tozasertib; first compound 0.1 µM): 0.441; relative viability (Linifanib + Tozasertib; first compound 0.3162 µM): 0.422; relative viability (Linifanib + OSI-027; first compound 0.03162 µM): 0.26; relative viability (Linifanib + OSI-027; first compound 0.1 µM): 0.229; relative viability (Linifanib + OSI-027; first compound 0.3162 µM): 0.263
